The values below come from US20160316750A1, “Compounds, Compositions and Methods for Attracting and/or Arresting Bed Bugs” (priority 2013, published 2016).

Experiment [1] deals with Cimex lectularius. Description: three-dish, dual-choice olfactometer bioassay. In kind it is in vivo. An excerpt: Bioassays were run in dual-choice olfactometers and in large Plexiglass arenas (FIG. 1). Dual-choice olfactometers consisted of two lateral Pyrex® glass Petri dishes, connected to a central dish (all dishes 3×9 cm inner diameter) via a Pyrex® glass tube (2.5 cm long×2 cm inner diameter). The dishes in this olfactometer mimic the natural still-air shelters in which bed bugs spend the day. Prior to the start of bioassays, a disc of paper towelling (9 cm diameter) was placed into each dish and a strip of paper towelling (2.4×0.6 cm) was inserted into the connecting glass tubing to provide traction for walking bed bugs. In addition, a piece of filter paper (2×3 cm; Whatman) was placed into each lateral dish and covered with a piece of cardboard (2×2 cm) as a refuge for bioassay insects.
Treatment and control stimuli were randomly assigned to each lateral dish. Olfactometers were enclosed in opaque plastic bins to prevent light from entering and affecting the insects' response. For each replicate, a single 3rd, 4th or 5th instar C. lectularius nymph was released into the central chamber of the olfactometer, which was then covered with a glass plate to prevent escape. The single bed bugs in each olfactometer were then allowed to explore all chambers. Each insect was released into an olfactometer at the end of the 14-h photophase allowing it to explore the chambers during 10 h of darkness, and to come to rest in one of the shelters during 10 h of light. After this 20-h period, the insect's position within the olfactometer was recorded. Any insects not found in a lateral chamber were recorded as non-responders. All experimental replicates were run at 24±2° C. and 30-60% RH. Olfactometers were washed with Sparkleen detergent (Fisher Scientific Co, Pittsburgh, Pa., USA), and were oven-dried (Precision, Winchester, Va., USA) between each bioassay.
To determine whether a blend of the 15 bed bug feces volatiles that were identified in bed bug feces (see EXAMPLE 11) attracts bed bugs and thus contains one or more bed bug pheromone components, the synthetic blend (SB) was tested at a medium dose (50 μg; Experiment 45), a low dose (5 μg; Experiment 46), and a very low dose (0.5 μg; Experiment 47) for the response of bed bugs in three-dish, dual-choice olfactometers (see EXAMPLE 2, FIG. 1). At each dose tested, all components were formulated in equal amounts in mineral oil which was pipetted into the inverted lid of a 4-ml vial. The vial was then placed on top of the corrugated cardboard shelter (see FIG. 1) in the randomly assigned treatment dish of the olfactometer (see EXAMPLE 2). The control stimulus consisted of the same type of lid on the corrugated cardboard of the control dish of the olfactometer containing mineral oil without synthetic test chemicals.

Experiment [2] deals with Cimex lectularius. Description: large Plexiglass arena bioassay with baited and control shelters. The class given is in vivo. As to conditions: adult males. An excerpt:
The large two-chamber Plexiglass arena (180 cm long×12 cm high×13 cm wide) was designed with a central divider (180 cm long×5.5 cm high) to accommodate two pieces of wood (162 cm long×3.8 cm wide×0.8 cm high), each piece for testing the response of a single bed bug to a pheromone-baited shelter or a control shelter (see insert in FIG. 1,b) which were randomly assigned to either end of the wood. […] For each replicate, a single bed bug was placed in the center of the wood piece just prior to the end of the 14-h photophase, and its position was scored the next morning after the onset of the photophase.
Experiments 68-75 also investigated the effect of the volatile pheromone components (VPCs) (E)-2-hexenal, (E)-2-octenal, dimethyl disulfide, dimethyl trisulfide and 2-hexanone, and the effect of the less-volatile pheromone component histamine (H), on attraction and arrestment of bed bugs. Treatment stimuli consisted of filter paper (4×2.2 cm) impregnated with H (2,000 μg) and covered with a piece of corrugated cardboard shelter (3×2.2 cm), and of VPCs formulated at a high dose (500 μg; Experiments 68-74) or a medium dose (50 μg; Experiment 75) in mineral oil (0.5 ml) and pipetted into the inverted lid of a 20-ml scintillation vial resting on top of the shelter (FIG. 1). Control stimuli were of identical design but the filter paper contained no H, and the mineral oil contained no VPCs.

A further experiment relates to bed bugs. Description: shelter traps in a heavily infested residential apartment (Room 106). In kind it is in vivo, Cimex lectularius. As to conditions: 24-h periods; for Mean ± SE number insects in baited shelter: Exp. 76-79, paired shelters; for Mean (± SE) number insects in control shelter: Exp. 76-79, unbaited shelter paired with the baited shelter.
The mark [3] stands for this setting: baited shelter 1 vs unbaited shelter 2, VPCs 500 μg, histamine 2,000 μg.

Description for bed bugs: To determine whether bed bugs responded to synthetic pheromone lures not only in large arena laboratory bioassays but also in infested premises (residential apartments), we placed pheromone-baited shelter traps (see FIG. 1) in apartments with known or suspected bed bug infestations. […] Based on 24-hour trapping results in multiple apartments, we selected a single, heavily infested apartment (hereafter referred to as Room 106) for further testing of synthetic bed bug pheromone lures.
Replicates (n=15-20) of each experiment consisted of paired shelters placed against a wall or furniture, with approximately 30-cm spacing between paired shelters and >1 m spacing between shelter pairs. For each shelter pair within each experiment, pheromone and control treatments were randomly assigned, and placement of replicates was alternated between the two experiments of Set 1 and Set 2. Because not more than 10 shelter pairs could be accommodated in Room 106 at any time, experimental data were collected over several consecutive 24-h periods. Every morning at 9:00, shelters were collected from Room 106 and immediately placed into separate labelled zipper lock bags which were then put on dry ice to kill the bed bugs that had entered a shelter. Bed bugs in each shelter were later counted in the laboratory under a microscope, noting their developmental stage (1st, 2nd, 3rd, 4th instar, adult), sex (male, female), and evidence (or not) for blood feeding prior to entry into a shelter Immediately following the removal of bed bug shelters from Room 106 each morning, new pre-prepared shelters were pheromone-baited (treatment) or not (control) and their position within shelter pairs randomly assigned (see above), again alternating placement of shelter pairs between Experiments 76 and 77 (Set 1) and between Experiments 78 and 79 (Set 2).

On to `NCCc1c[nH]cn1` [H, histamine], for which the “No. insects not responding” value in the experiment on Cimex lectularius [1] (Exp. 23-37, nymphs, bait amounts in micrograms) is 3; with Cimex lectularius [2] (setting [3]), 5. Further, the “No. insects in control chamber” value in the experiment with Cimex lectularius [1] (Exp. 23-37, nymphs, bait in the other chamber, amounts in micrograms) was 10. Further, the “No. insects in bait chamber” value with Cimex lectularius [1] (Exp. 23-37, nymphs, numbers in parentheses of the bait = amounts in micrograms) was found to be 35. Moreover, the “arrestment response by form of histamine (in words)” value in the experiment with Cimex lectularius [1] (Experiments 26-28, dimethylaminoethanol 20 μg and histamine 20 μg as base, salt or base and salt) was “only as a base elicits the bed bugs' arrestment response”. Further, the “bioactivity alone (in words)” value with Cimex lectularius [1] (Experiments 36-37, alone at 200 μg, nymphs) is listed as “bioactive on its own”. In addition, the “No. insects in shelter 2” value is reported as 14 in the experiment on Cimex lectularius [2] (Exp. 72, H (2,000 μg) in shelter 2 vs VPC (500 μg) in shelter 1); 5 with Cimex lectularius [2] (Exp. 74, H (2,000 μg) in shelter 2 vs VPC (500 μg) + H in shelter 1); 0 in the experiment on Cimex lectularius [2] (Exp. 75, H (2,000 μg) in shelter 2 vs VPC (50 μg) + H in shelter 1); 1 with Cimex lectularius [2] (unbaited shelter 2, bait in shelter 1, VPCs 500 μg, histamine 2,000 μg); “one” in the experiment on Cimex lectularius [2] (unbaited shelter 2, bait in shelter 1, VPCs 500 μg, histamine 2,000 μg, listed as histamine). For the same compound, the “No. insects in shelter 1” value in the experiment on Cimex lectularius [2] (setting [3]) stood at 12. Also, the entries for the “Mean ± SE number insects in baited shelter” value in the experiment with bed bugs and with bed bugs (listed as histamine) were 6.06 ± 1.28 and 6.06, respectively. Moreover, the results for the “Mean (± SE) number insects in control shelter” value in the experiment with bed bugs and in the experiment with bed bugs (listed as histamine) were 4.53 ± 1.8 and 4.53, respectively.
